IC50 data for 14 compounds are collected here from patent US20130072470A1 (ABBVIE INC., priority 2011, published 2013).

Where only a bound is given, the exact number is not on record here.

The target of this assay is T1, Jak3 enzyme (aa 811-1103) (Homo sapiens, UniProt P52333).
T1 construct: Jak3 enzyme (aa 811-1103); expressed in SF9 cells as a GST fusion; GST; made in house; host or cells: SF9 insect cells
T1 sequence (P52333 811-1103): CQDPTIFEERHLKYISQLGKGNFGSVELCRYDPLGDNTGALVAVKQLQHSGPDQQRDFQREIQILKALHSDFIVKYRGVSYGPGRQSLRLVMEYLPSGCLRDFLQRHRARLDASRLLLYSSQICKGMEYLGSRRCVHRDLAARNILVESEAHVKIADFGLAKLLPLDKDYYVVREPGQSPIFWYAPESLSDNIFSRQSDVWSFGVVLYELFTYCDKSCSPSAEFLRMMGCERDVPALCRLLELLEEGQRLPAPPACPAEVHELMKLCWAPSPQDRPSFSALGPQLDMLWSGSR
Put plainly: In vitro Jak3 kinase activity measured by time-resolved fluorescence resonance energy transfer (trFRET). In kind it is biochemical. The following applies: ATP 0.001 mM, Table B. Put shortly: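 GST-tagged Jak3 (aa 811-1103, Sf9-expressed; 3 nM) with 2 μM biotin-peptide substrate and 1 μM ATP in MOPSO pH 6.5 with Mg2+/Mn2+, about 60 min at rt. EDTA-quenched; Eu anti-phosphotyrosine/streptavidin-APC trFRET read at 665 nm; IC50 from signal in linear range.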
Regarding `CC[C@@H]1C[C@H](NC(=O)CCc2ccc(C)o2)C[C@@H]1c1nnc2cnc3[nH]ccc3n12` [compound 69, N-((1S,3R,4S)-3-ethyl-4-(6H-pyrrolo[2,3-e][1,2,4]triazolo[4,3-a]pyrazin-1-yl)cyclopentyl)-3-(5-methylfuran-2-yl)propanamide], the IC50 (in general, the concentration that inhibits the measured activity by half) lay within 1 to 10 µM.
Under `CC[C@@H]1C[C@H](NC(=O)CCC2CCCCC2=O)C[C@@H]1c1nnc2cnc3[nH]ccc3n12` (stereo partly drawn) [compound 70, N-((1S,3R,4S)-3-ethyl-4-(6H-pyrrolo[2,3-e][1,2,4]triazolo[4,3-a]pyrazin-1-yl)cyclopentyl)-3-(2-oxocyclohexyl)propanamide] stands over 10 µM; under `CC[C@@H]1C[C@H](NC(=O)Cc2noc3ccccc23)C[C@@H]1c1nnc2cnc3[nH]ccc3n12` [compound 71, 2-(benzo[d]isoxazol-3-yl)-N-((1S,3R,4S)-3-ethyl-4-(6H-pyrrolo[2,3-e][1,2,4]triazolo[4,3-a]pyrazin-1-yl)cyclopentyl)acetamide], 1 to 10 µM; under `CC[C@@H]1C[C@H](NC(=O)c2noc3c2CCCC3)C[C@@H]1c1nnc2cnc3[nH]ccc3n12` [compound 72, N-((1S,3R,4S)-3-ethyl-4-(6H-pyrrolo[2,3-e][1,2,4]triazolo[4,3-a]pyrazin-1-yl)cyclopentyl)-4,5,6,7-tetrahydrobenzo[d]isoxazole-3-carboxamide], 1 to 10 µM.
`CC[C@@H]1C[C@H](NC(=O)c2cc(-c3ccco3)on2)C[C@@H]1c1nnc2cnc3[nH]ccc3n12` [compound 73, N-((1S,3R,4S)-3-ethyl-4-(6H-pyrrolo[2,3-e][1,2,4]triazolo[4,3-a]pyrazin-1-yl)cyclopentyl)-5-(furan-2-yl)isoxazole-3-carboxamide] gave an IC50 of under 1 µM.
Under `CCc1ocnc1C(=O)N[C@H]1C[C@@H](CC)[C@@H](c2nnc3cnc4[nH]ccc4n23)C1` [compound 74, 5-ethyl-N-((1S,3R,4S)-3-ethyl-4-(6H-pyrrolo[2,3-e][1,2,4]triazolo[4,3-a]pyrazin-1-yl)cyclopentyl)oxazole-4-carboxamide] stands 1 to 10 µM.
`CC[C@@H]1C[C@H](NC(=O)CSc2nnc(C)o2)C[C@@H]1c1nnc2cnc3[nH]ccc3n12` [compound 75, N-((1S,3R,4S)-3-ethyl-4-(6H-pyrrolo[2,3-e][1,2,4]triazolo[4,3-a]pyrazin-1-yl)cyclopentyl)-2-(5-methyl-1,3,4-oxadiazol-2-ylthio)acetamide] had an IC50 of 1 to 10 µM.
Under `CCc1cc(C(=O)N[C@H]2C[C@@H](CC)[C@@H](c3nnc4cnc5[nH]ccc5n34)C2)no1` [compound 76, 5-ethyl-N-((1S,3R,4S)-3-ethyl-4-(6H-pyrrolo[2,3-e][1,2,4]triazolo[4,3-a]pyrazin-1-yl)cyclopentyl)isoxazole-3-carboxamide] stands 1 to 10 µM; under `CC[C@@H]1C[C@H](NC(=O)CCC2CCCCC2)C[C@@H]1c1nnc2cnc3[nH]ccc3n12` [compound 77, 3-cyclohexyl-N-((1S,3R,4S)-3-ethyl-4-(6H-pyrrolo[2,3-e][1,2,4]triazolo[4,3-a]pyrazin-1-yl)cyclopentyl)propanamide], 1 to 10 µM; under `CC[C@@H]1C[C@H](NC(=O)c2ccco2)C[C@@H]1c1nnc2cnc3[nH]ccc3n12` [compound 78, N-((1S,3R,4S)-3-ethyl-4-(6H-pyrrolo[2,3-e][1,2,4]triazolo[4,3-a]pyrazin-1-yl)cyclopentyl)furan-2-carboxamide], 1 to 10 µM.
The compound `CC[C@@H]1C[C@H](NC(=O)c2occc2C)C[C@@H]1c1nnc2cnc3[nH]ccc3n12` [compound 79, N-((1S,3R,4S)-3-ethyl-4-(6H-pyrrolo[2,3-e][1,2,4]triazolo[4,3-a]pyrazin-1-yl)cyclopentyl)-3-methylfuran-2-carboxamide] returned an IC50 of 1 to 10 µM.
Take `CC[C@@H]1C[C@H](NC(=O)CCC2CCC(=O)N2)C[C@@H]1c1nnc2cnc3[nH]ccc3n12` (stereo partly drawn) [compound 80, N-((1S,3R,4S)-3-ethyl-4-(6H-pyrrolo[2,3-e][1,2,4]triazolo[4,3-a]pyrazin-1-yl)cyclopentyl)-3-(5-oxopyrrolidin-2-yl)propanamide]: the IC50 was in the range of 1 to 10 µM.
The compound `CCc1cc(C(=O)N[C@H]2C[C@@H](CC)[C@@H](c3nnc4cnc5[nH]ccc5n34)C2)on1` [compound 81, 3-ethyl-N-((1S,3R,4S)-3-ethyl-4-(6H-pyrrolo[2,3-e][1,2,4]triazolo[4,3-a]pyrazin-1-yl)cyclopentyl)isoxazole-5-carboxamide] came in with a half-maximal inhibitory concentration (IC50) of 1 to 10 µM.
In turn, `CC[C@@H]1C[C@H](NC(=O)c2cnco2)C[C@@H]1c1nnc2cnc3[nH]ccc3n12` [compound 82, N-((1S,3R,4S)-3-ethyl-4-(6H-pyrrolo[2,3-e][1,2,4]triazolo[4,3-a]pyrazin-1-yl)cyclopentyl)oxazole-5-carboxamide] registered an IC50 of 1 to 10 µM.
